According to ChEMBL document CHEMBL1201862, “PubChem BioAssay data set” (2004):
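Growth conditions: 96-well plates. Treatment: test compound, 48 hours, 5 concentrations. Analysis: linear interpolation between bracketing concentrations; unreached endpoints set to highest concentration. GI50: concentration for 50% inhibition of growth.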 Activity calls are given as the source filed them. No stated cut-off is given here; in the data, active = GI50 up to about 1.1 µM and inactive = higher.

Legend:
Test in all cases: inhibition of tumour cell growth, NCI panel, 48 h
M14 = system: M14
786-0 = system: 786-0
OVCAR-5 = system: OVCAR-5
SK-OV-3 = system: SK-OV-3
A549 = system: A549
SNB-19 = system: SNB-19
Malme-3M = system: Malme-3M
OVCAR-8 = system: OVCAR-8
TK-10 = system: TK-10
UACC-257 = system: UACC-257
SK-MEL-28 = system: SK-MEL-28
RXF 631 = system: RXF 631
IGROV-1 = system: IGROV-1
DMS-273 = system: DMS-273
EKVX = system: EKVX
UO-31 = system: UO-31
OVCAR-3 = system: OVCAR-3
KM-20L2 = system: KM-20L2
NCI-H23 = system: NCI-H23
HOP-62 = system: HOP-62
HL-60 = system: HL-60
NCI-H522 = system: NCI-H522
DLD-1 = system: DLD-1
CCRF-CEM = system: CCRF-CEM
NCI-H460 = system: NCI-H460
KM12 = system: KM12
HT-29 = system: HT-29
MOLT-4 = system: MOLT-4
SK-MEL-2 = system: SK-MEL-2
SF-539 = system: SF-539
M19-MEL = system: M19-MEL
SNB-78 = system: SNB-78
SNB-75 = system: SNB-75
A498 = system: A498
COLO 205 = system: COLO 205
HCT-116 = system: HCT-116
SW-620 = system: SW-620
RXF 393 = system: RXF 393
ACHN = system: ACHN
RPMI-8226 = system: RPMI-8226
U-251 = system: U-251
XF498 = system: XF498
K562 = system: K562
HCC 2998 = system: HCC 2998
LOX IMVI = system: LOX IMVI
HOP-92 = system: HOP-92
UACC-62 = system: UACC-62
HCT-15 = system: HCT-15
NCI/ADR-RES = system: NCI/ADR-RES
SF-268 = system: SF-268
MCF7 = system: MCF7
SN12C = system: SN12C
DMS-114 = system: DMS-114
SK-MEL-5 = system: SK-MEL-5
SF-295 = system: SF-295
HOP-18 = system: HOP-18
CAKI-1 = system: CAKI-1
OVCAR-4 = system: OVCAR-4
NCI-H226 = system: NCI-H226

COC(=O)NC12CC3CC(CC(F)(C3)C1)C2
GI50 (M14): > 100 µM (inactive)
GI50 (786-0): > 100 µM (inactive)
GI50 (OVCAR-5): > 100 µM (inactive)
GI50 (SK-OV-3): > 100 µM (inactive)
GI50 (A549): > 100 µM (inactive)
GI50 (SNB-19): > 100 µM (inactive)
GI50 (Malme-3M): > 100 µM (inactive)
GI50 (OVCAR-8): > 100 µM (inactive)
GI50 (TK-10): > 100 µM (inactive)
GI50 (UACC-257): > 100 µM (inactive)
GI50 (SK-MEL-28): > 100 µM (inactive)
GI50 (RXF 631): > 100 µM (inactive)
GI50 (IGROV-1): > 100 µM (inactive)
GI50 (DMS-273): > 100 µM (inactive)
GI50 (EKVX): > 100 µM (inactive)
GI50 (UO-31): > 100 µM (inactive)
GI50 (OVCAR-3): > 100 µM (inactive)
GI50 (KM-20L2): > 100 µM (inactive)
GI50 (NCI-H23): > 100 µM (inactive)
GI50 (HOP-62): > 100 µM (inactive)
GI50 (HL-60): > 100 µM (inactive)
GI50 (NCI-H522): > 100 µM (inactive)
GI50 (DLD-1): > 100 µM (inactive)
GI50 (CCRF-CEM): > 100 µM (inactive)
GI50 (NCI-H460): > 100 µM (inactive)
GI50 (KM12): > 100 µM (inactive)
GI50 (HT-29): > 100 µM (inactive)
GI50 (MOLT-4): > 100 µM (inactive)
GI50 (SK-MEL-2): > 100 µM (inactive)
GI50 (SF-539): > 100 µM (inactive)
GI50 (M19-MEL): > 100 µM (inactive)
GI50 (SNB-78): > 100 µM (inactive)
GI50 (SNB-75): 19.7 µM (inactive)
GI50 (A498): > 100 µM (inactive)
GI50 (COLO 205): > 100 µM (inactive)
GI50 (HCT-116): > 100 µM (inactive)
GI50 (SW-620): > 100 µM (inactive)
GI50 (RXF 393): > 100 µM (inactive)
GI50 (ACHN): > 100 µM (inactive)
GI50 (RPMI-8226): > 100 µM (inactive)
GI50 (U-251): > 100 µM (inactive)
GI50 (XF498): > 100 µM (inactive)
GI50 (K562): > 100 µM (inactive)
GI50 (HCC 2998): > 100 µM (inactive)
GI50 (LOX IMVI): > 100 µM (inactive)
GI50 (HOP-92): > 100 µM (inactive)
GI50 (UACC-62): > 100 µM (inactive)

CC(=O)OCC1OC(NC(=O)N(CCCl)N=O)C(OC(C)=O)C(OC(C)=O)C1OC(C)=O (stereo unspecified)
GI50 (OVCAR-5): > 100 µM (inactive)
GI50 (SK-OV-3): > 100 µM (inactive)
GI50 (A549): > 100 µM (inactive)
GI50 (SNB-19): > 65.8 µM (inactive)
GI50 (HCT-15): > 100 µM
GI50 (Malme-3M): > 100 µM (inactive)
GI50 (OVCAR-8): > 100 µM (inactive)
GI50 (UACC-257): > 100 µM (inactive)
GI50 (SK-MEL-28): > 100 µM (inactive)
GI50 (IGROV-1): > 100 µM (inactive)
GI50 (DMS-273): > 100 µM (inactive)
GI50 (EKVX): 54.8 µM (inactive)
GI50 (UO-31): > 100 µM (inactive)
GI50 (OVCAR-3): > 100 µM (inactive)
GI50 (KM-20L2): > 100 µM (inactive)
GI50 (NCI-H23): > 100 µM (inactive)
GI50 (HOP-62): > 100 µM (inactive)
GI50 (HL-60): > 100 µM (inactive)
GI50 (NCI/ADR-RES): > 100 µM (inactive)
GI50 (SF-268): > 80.9 µM (inactive)
GI50 (NCI-H522): > 100 µM (inactive)
GI50 (DLD-1): > 100 µM (inactive)
GI50 (MCF7): > 100 µM (inactive)
GI50 (CCRF-CEM): > 100 µM (inactive)
GI50 (SN12C): > 100 µM (inactive)
GI50 (DMS-114): > 100 µM (inactive)
GI50 (NCI-H460): > 83.8 µM (inactive)
GI50 (KM12): > 100 µM (inactive)
GI50 (SK-MEL-5): > 31.6 µM (inactive)
GI50 (HT-29): > 100 µM (inactive)
GI50 (MOLT-4): > 31.6 µM (inactive)
GI50 (SK-MEL-2): > 100 µM (inactive)
GI50 (SF-539): > 89.1 µM (inactive)
GI50 (M19-MEL): > 100 µM (inactive)
GI50 (SNB-78): > 100 µM (inactive)
GI50 (SNB-75): 36.1 µM (inactive)
GI50 (A498): > 100 µM (inactive)
GI50 (SF-295): 97.1 µM (inactive)
GI50 (COLO 205): > 100 µM (inactive)
GI50 (HCT-116): > 100 µM (inactive)
GI50 (HOP-18): > 100 µM (inactive)
GI50 (SW-620): > 100 µM (inactive)
GI50 (CAKI-1): > 86.7 µM (inactive)
GI50 (RXF 393): > 100 µM (inactive)
GI50 (RPMI-8226): > 100 µM (inactive)
GI50 (OVCAR-4): > 100 µM (inactive)
GI50 (U-251): 98.4 µM (inactive)
GI50 (NCI-H226): 3.86 µM (inactive)
GI50 (XF498): 75.9 µM (inactive)
GI50 (K562): > 100 µM (inactive)
GI50 (HCC 2998): > 100 µM (inactive)
GI50 (LOX IMVI): 44.8 µM (inactive)
GI50 (HOP-92): > 100 µM (inactive)
GI50 (UACC-62): 43.9 µM (inactive)
